From patent publication US12115209B2, “ROMO1-derived antimicrobial peptides including lysine substitution and variants thereof” (KOREA UNIVERSITY RESEARCH AND BUSINESS FOUNDATION, priority 2019, dated 2024) come the findings set out here.

Series [1] deals with Pseudomonas aeruginosa (ATCC 27853). Briefly: Minimum bactericidal concentration (MBC) assay. It counts as cell-based. Particulars: Tables 11-21, no unit printed. The gist of the method:
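P. aeruginosa ATCC 27853 and S. aureus ATCC 29213 grown in 3% TSB at 37° C, 200 rpm, then diluted in SP buffer (10 mM sodium phosphate, 1% TSB). Peptides (0–300 μg/ml) exposed to 1×10^5 CFU/ml for 1 h at 37° C; aliquots plated on TS agar, 18 h. MBC = lowest concentration giving no colonies.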

Series [2] deals with Staphylococcus aureus, Pseudomonas aeruginosa, methicillin-resistant Staphylococcus aureus and multidrug-resistant Pseudomonas aeruginosa. Put plainly: Bacteria remaining in the blood of infected mice after intravenous injection of the drug. Type of series: in vivo, mice (C57BL/6). The settings on record: 10 mg/kg intravenous 1 hour after infection; blood 40 minutes after injection; compared with LL-37, magainin 2, daptomycin. On the procedure:
Specifically, Staphylococcus aureus, Pseudomonas aeruginosa, methicillin-resistant Staphylococcus aureus and multidrug-resistant Pseudomonas aeruginosa was cultured in 3% (w/v) TSB liquid medium at 37° C. and 200 rpm for 4 hours, and then further cultured under the same conditions for 3 hours to a concentration of 5×10^9 CFU/ml. Strain solutions were prepared by diluting each of the further cultured strains with PBS solution to a final concentration of 1×10^5 CFU/μl.
Next, 100 μl of each strain solution was injected intravenously (IV) into the tail vein of each of 10-week-old male mice (C57BL/6). After one hour, KU-5878 was intravenously injected at a concentration of 10 mg/kg. As a control, PBS was intravenously injected at a concentration of 10 mg/kg, and as a positive control, LL-37, magainin 2, or daptomycin was intravenously injected at a concentration of 10 mg/kg.
40 minutes after the intravenous injection of each drug, about 1 cm from the tail end of each mouse was cut using surgical scissors, and 10 μl of the blood at the end of the cut was collected and diluted in PBS. The diluted blood sample was plated on a previously prepared TSB agar plate and incubated in an incubator at 37° C. for 18 hours, and the formed colonies were counted for comparison.

Series [3] has as its system Escherichia coli (ATCC 25922). It counts as cell-based. Particulars: ATCC 25922, 4 h. On the procedure: (§1) Specifically, each type of bacteria was cultured in 3% (w/v) TSB (tryptic soy broth) liquid medium at 37° C. and 200 rpm for 4 hours, and then further cultured under the same conditions for 3 hours to a concentration of 5×10^6 CFU/ml. Strain solutions were prepared by diluting each of the further cultured strains with SP buffer to a final concentration of 2×10^5 CFU/ml.
(§2) Then, the KU-5878 peptide at varying concentrations (0 μg/ml to 300 μg/ml) was dispensed into each well of a 96-well microplate, and 100 μl (1×10^5 CFU/ml) of each of the prepared strain solutions was added thereto, mixed therewith, and allowed to react with the peptide in an incubator at 37° C. for 1 hour.
(§3) In addition, 10 μl of each reaction solution of the peptide and the strain was plated on the TS agar plate at a constant size, and incubated in an incubator at 37° C. for 18 hours, and then colony formation on the plate was checked. The minimum bactericidal concentration was defined as the minimum concentration of the peptide at which no colony was formed, and the experimental results are shown in Table 2 below.

Series [4] deals with Acinetobacter baumannii (ATCC 19606). It counts as cell-based. Particulars: ATCC 19606, 4 h. As for the experimental part: as §1, §2, §3
Series [5] has as its system Klebsiella pneumoniae (ATCC 13883). Type of series: cell-based. The settings on record: ATCC 13883, 4 h. On the procedure:
as §1, §2, §3

For series [6], the system named is Enterococcus faecium (ATCC 19434). Type of series: cell-based. Particulars: ATCC 19434, 4 h. As for the experimental part: as §1, §2, §3
The subject of series [7] is Enterobacter aerogenes (ATCC 13048). Type of series: cell-based. Particulars: ATCC 13048, 4 h. On the procedure: as §1, §2, §3
The test system of series [8] is Bacillus subtilis (ATCC 6633). Type of series: cell-based. Particulars: ATCC 6633, 4 h. As for the experimental part: as §1, §2, §3
For series [9], the system named is Streptomyces sindenensis (ATCC 12392). It counts as cell-based. The settings on record: ATCC 12392, 4 h. As for the experimental part:
as §1, §2, §3

Series [10] concerns Enterococcus faecalis (ATCC 19433). It counts as cell-based. Particulars: ATCC 19433, 4 h. As for the experimental part: as §1, §2, §3
Series [11] concerns Human vascular endothelial cells (HUVECs). Put plainly: Toxicity to human vascular endothelial cells (MTT). It counts as cell-based. The settings on record: 0 μg/ml to 300 μg/ml. As for the experimental part:
PBS was used as a control.
The HUMEC medium was replaced with fresh medium, and KU-5878, melittin or magainin 2 were dispensed at various concentrations (0 μg/ml to 300 μg/ml). Then, each well was treated with 100 μl of MTT reagent and incubated at 37° C. for 2 hours. Then, the medium and the peptide were carefully removed so as not to separate the cells, and 100 μl of DMSO (dimethyl sulfoxide) was added to each well, and the absorbance at a wavelength of 570 nm was measured using a spectrophotometer. Relative cell viability was calculated as a percentage of the viability of untreated control cells.

No end group written: not given here.

KTMMQSGGTFGTFMAIGMGIR [KU-5878] displayed an MBC Pseudomonas aeruginosa in series [1] of 100 µg/mL. Besides, the “number of bacteria remaining in the blood vessels of the mice” value in [2] is “most greatly decreased”. The “MBC value” in [3] is 85 µg/mL; in series [4], 100 µg/mL; in [5] it was 100 µg/mL; in series [6] it was 85 µg/mL; in series [7], 90 µg/mL; in series [8] it was 90 µg/mL. Also, the “MBC value” in series [9] was determined as 95 µg/mL; in series [10], 85 µg/mL. Moreover, the “toxicity to the HUVECs (relative cell viability, MTT)” value in [11] is “very low toxicity”.
